The structures appear in SMILES notation.

This test relates to Bloodstream form of Trypanosoma brucei, strain Lister 427. As to the kind of experiment: Trypanosoma brucei growth inhibition assay (CellTiter-Glo, 24 h). The class given is cell-based. Particulars: Trypanosoma brucei; T. Brucei Growth Inibition Assay, class symbols; read-out: T. Brucei GI EC50. Here is the method:
Bloodstream form of Trypanosoma brucei, strain Lister 427 (provided by Prof. Miguel Navarro, Instituto de Parasitologia y Biomedicina “Lopez-Neyra” Avda. Conocimiento S/N Parque Tecnologico Ciencias de la Salud—Spain; ref. Navarro M. and Cross G. A. M. Molecular and Cellular Biology, 1996, Vol. 16, No. 7, pp. 3615-3625) were grown in IMDM Iscove's Modified Dulbecco's Medium (SIGMA #17633) supplemented with: 3.024 g/l sodium bicarbonate, hypoxanthine 1 mM, thymidine 0.16 mM, bathocuprione sulfonic acid 0.05 mM, cysteine 1.5 mM, ß-mercaptoethanol […] and 10% foetal bovine serum (heat-inactivated at 56° C. for 30 min). Parasites were grown at 37° C. in flasks with vented caps in a 5% CO2 incubator to a maximum cell density of about 2×10^6/ml and diluted every two-three days.
The compounds of the invention were dissolved in DMSO and transferred to assay plates by acoustic droplet ejection (ATS-100, EDC Biosystems, USA) in order to obtain an appropriate concentration and to keep the concentration of DMSO below or equal to 0.25% in the final assay volume of 30 μL. 1500 parasites resuspended in 30 μL of culture medium were then transferred to each well of a 384-well plate.
After an incubation period of 24 hours at 37° C., each well is added 15 μl of CellTiter-Glo® Reagent (Promega) and incubated at room temperature. 5-10 min post incubation, the plate is read using a luminometer (ViewLux®). A known inhibitor of the growth of T. brucei was used as the reference positive control.
For orientation: ATP-based viability assays read luminescence as a measure of living cells.
One may read the EC50 as the concentration at which the effect is half-maximal. Turning to `COc1ccc2nc(C(F)(F)F)n(CC(=O)N3CCN(Cc4ccn(C)n4)C[C@H]3c3ncc(-c4cc5ccccc5nc4OC)[nH]3)c2c1` [(S)-2-(6-methoxy-2-(trifluoromethyl)-1H-benzo[d]imidazol-1-yl)-1-(2-(5-(2-methoxyquinolin-3-yl)-1H-imidazol-2-yl)-4-((1-methyl-1H-pyrazol-3-yl)methyl)piperazin-1-yl)ethan-1-one], the concentration giving a half-maximal response (EC50) is less than 100 nM. The figure for `COc1nc2ccccc2cc1-c1cnc([C@@H]2CN(CC3CCOC3)CCN2C(=O)C(C)(C)n2c(C(F)(F)F)nc3ccccc32)[nH]1` (stereo partly drawn) is 1010 to 5000 nM; for `Cc1[nH]c2ccc(F)cc2c1CC(=O)N1CCS(=O)(=O)CC1c1ncc(-c2ccc3ccccc3c2)[nH]1` (stereo not drawn) it is 100 to 500 nM; for `COc1ccc2nc(C(F)(F)F)n(CC(=O)N3CC[C@H](NC(C)C)C[C@H]3c3ncc(-c4cc5ccccc5nc4OC)[nH]3)c2c1` [1-((2S,4S)-4-(isopropylamino)-2-(5-(2-methoxyquinolin-3-yl)-1H-imidazol-2-yl)piperidin-1-yl)-2-(6-methoxy-2-(trifluoromethyl)-1H-benzo[d]imidazol-1-yl)ethan-1-one] it is less than 100 nM. The figure for `COc1nc2ccccc2cc1-c1cnc([C@@H]2CN(CC3CCOC3)CCN2C(=O)Cn2c(C)nc3ncncc32)[nH]1` (stereo partly drawn) is 1010 to 5000 nM. In the case of `COc1ccc2nc(C(F)(F)F)n(CC(=O)N3CCN(CC4COC4)CCC3c3ncc(-c4cc5ccccc5nc4OC)[nH]3)c2c1` (stereo not drawn) it was 100 to 500 nM; in that of `COc1nc2ccccc2cc1-c1cnc(C2CN(CC3CCOC3)CCN2C(=O)Cc2ccc(-c3nccnc3C)cc2)[nH]1` (stereo not drawn), 1010 to 5000 nM. Consider `COc1ccc2nc(C(F)(F)F)n(CC(=O)N3CCN(CCc4ccccn4)CCC3c3ncc(-c4cc5ccccc5nc4OC)[nH]3)c2c1` (stereo not drawn) [2-(6-methoxy-2-(trifluoromethyl)-1H-benzo[d]imidazol-1-yl)-1-(7-(5-(2-methoxyquinolin-3-yl)-1H-imidazol-2-yl)-4-(2-(pyridin-2-yl)ethyl)-1,4-diazepan-1-yl)-ethan-1-one], for which the EC50 lay within 100 to 500 nM. As to `COc1nc2ccccc2cc1-c1cnc(C2CN(Cc3cc[n+]([O-])cc3)CCN2C(=O)Cc2c(C)[nH]c3ccc(F)cc23)[nH]1` (stereo not drawn), the half-maximal effective concentration (EC50) was 1010 to 5000 nM.

Turning to `COc1ccc2nc(C)n(CC(=O)N3CCN(C4CCN(C(C)=O)CC4)C[C@H]3c3ncc(-c4cc5ccccc5nc4OC)[nH]3)c2c1`, the 50% effective concentration (EC50) lay in the range of 510 to 1000 nM. In the case of `COc1nc2ccccc2cc1-c1cnc([C@@H]2CN(C3CCS(=O)(=O)CC3)CCN2C(=O)Cn2c(C(F)(F)F)nc3ccccc32)[nH]1` [(S)-1-(4-(1,1-dioxidotetrahydro-2H-thiopyran-4-yl)-2-(5-(2-methoxyquinolin-3-yl)-1H-imidazol-2-yl)piperazin-1-yl)-2-(2-(trifluoromethyl)-1H-benzo[d]imidazol-1-yl)ethan-1-one] it was less than 100 nM. The figure for `COc1nc2ccccc2cc1-c1cnc(C2CNCCN2C(=O)Cc2c(C)[nH]c3ccc(F)cc23)[nH]1` (stereo not drawn) [2-(5-fluoro-2-methyl-1H-indol-3-yl)-1-(2-(5-(2-methoxyquinolin-3-yl)-1H-imidazol-2-yl)piperazin-1-yl)ethan-1-one] is 1010 to 5000 nM; for `COc1ccc2nc(C(F)(F)F)n(CC(=O)N3CCS(=O)(=O)C[C@H]3c3ncc(-c4cc5ccccc5nc4OC)[nH]3)c2c1` [(R)-2-(6-methoxy-2-(trifluoromethyl)-1H-benzo[d]imidazol-1-yl)-1-(3-(5-(2-methoxyquinolin-3-yl)-1H-imidazol-2-yl)-1,1-dioxidothiomorpholino)ethan-1-one] it is 100 to 500 nM. On to `COc1ccc2nc(C(F)(F)F)n(CC(=O)N3CCN(Cc4cn[nH]c4)CCC3c3ncc(-c4cc5ccccc5nc4OC)[nH]3)c2c1` (stereo not drawn), for which the EC50 lay in the range of 100 to 500 nM. In the case of `CCCCCCN1CCN(C(=O)CC2C(=O)Nc3ccc(OC)cc32)C(c2ncc(-c3ccc4ccccc4c3)[nH]2)C1` (stereo not drawn) it was 1010 to 5000 nM; in that of `Cc1[nH]c2ccccc2c1CC(=O)N1CCN(CCc2ccccc2)CC1c1ncc(-c2ccc3ccccc3c2)[nH]1` (stereo not drawn), 510 to 1000 nM; in that of `COc1nc2ccccc2cc1-c1cnc([C@@H]2CN(CC3CCOC3)CCN2C(=O)Cn2cc(C(F)(F)F)nc2C)[nH]1` (stereo partly drawn), 1010 to 5000 nM. The figure for `COc1ccc2nc(C(F)(F)F)n(CC(=O)N3CCN(C4CCC4)CCC3c3ncc(-c4cc5ccccc5nc4OC)[nH]3)c2c1` (stereo not drawn) [1-(4-cyclobutyl-7-(5-(2-methoxyquinolin-3-yl)-1H-imidazol-2-yl)-1,4-diazepan-1-yl)-2-(6-methoxy-2-(trifluoromethyl)-1H-benzo[d]imidazol-1-yl)ethan-1-one] is less than 100 nM; for `O=C(Cc1nc2ccccc2o1)N1CCN(CC2CC2)CC1c1ncc(-c2ccc3ccccc3c2)[nH]1` (stereo not drawn) it is 1010 to 5000 nM. In the case of `CCC(=O)CCCN1CCN(C(=O)Cc2c[nH]c3ccccc23)[C@@H](c2ncc(-c3ccc4ccccc4c3)[nH]2)C1` it was 1010 to 5000 nM; in that of `COc1ccc2c(c1)C(CC(=O)N1CCN(Cc3ccccc3)CC1c1ncc(-c3ccc4ccccc4c3)[nH]1)C(=O)N2` (stereo not drawn), 510 to 1000 nM. `COc1nc2ccccc2cc1-c1cnc([C@@H]2CN(Cc3cocn3)CCN2C(=O)Cn2c(C(F)(F)F)nc3ccccc32)[nH]1` [(S)-1-(2-(5-(2-methoxyquinolin-3-yl)-1H-imidazol-2-yl)-4-(oxazol-4-ylmethyl)piperazin-1-yl)-2-(2-(trifluoromethyl)-1H-benzo[d]imidazol-1-yl)ethan-1-one]: the half-maximal effective concentration (EC50) is less than 100 nM. In the case of `COc1nc2ccccc2cc1-c1cnc([C@@H]2CN(Cc3noc(C)n3)CCN2C(=O)Cn2c(C(F)(F)F)nc3ccccc32)[nH]1` [(S)-1-(2-(5-(2-methoxyquinolin-3-yl)-1H-imidazol-2-yl)-4-((5-methyl-1,2,4-oxadiazol-3-yl)methyl)piperazin-1-yl)-2-(2-(trifluoromethyl)-1H-benzo[d]imidazol-1-yl)ethan-1-one] it was less than 100 nM; in that of `COc1nc2ccccc2cc1-c1cnc([C@@H]2CN(CC3CCOC3)CCN2C(=O)Cn2c(C)nc3ccc(S(C)(=O)=O)cc32)[nH]1` (stereo partly drawn), 100 to 500 nM; in that of `Cc1csc(CC(=O)N2CCN(CC3CC3)CC2c2ncc(-c3ccc4ccccc4c3)[nH]2)n1` (stereo not drawn), 1010 to 5000 nM. The figure for `CO[C@@](C(=O)N1CCN(C)C[C@@H]1c1ncc(-c2ccc3ccccc3c2)[nH]1)(c1ccccc1)C(F)(F)F` is 1010 to 5000 nM. In the case of `COc1ccc2c(CC(=O)N3CCN(CC4CCOC4)CC3c3ncc(-c4cc5ccccc5nc4OC)[nH]3)coc2c1` (stereo not drawn) it was 510 to 1000 nM; in that of `COc1nc2ccccc2cc1-c1cnc(C2CN(CC3CCOC3)CCN2C(=O)Cn2c(C#N)nc3ccccc32)[nH]1` (stereo not drawn), 1010 to 5000 nM; in that of `Cn1cc(CC(=O)N2CCN(CC3CC3)CC2c2ncc(-c3ccc4ccccc4c3)[nH]2)c2ccccc21` (stereo not drawn), 1010 to 5000 nM. Take `COc1nc2ccccc2cc1-c1cnc([C@@H]2CN(C[C@H]3CCOC3)CCN2C(=O)Cn2c(C(F)(F)F)nc3ccccc32)[nH]1` (single isomer, unassigned): the 50% effective concentration (EC50) was less than 100 nM. In the case of `Cc1[nH]c2ccccc2c1CC(=O)N1CCN(Cc2ccccc2)CC1c1ncc(-c2ccc3ccccc3c2)[nH]1` (stereo not drawn) it was 1010 to 5000 nM. The figure for `Cc1csc(CC(=O)N2CCN(Cc3ccccc3)CC2c2ncc(-c3ccc4ccccc4c3)[nH]2)n1` (stereo not drawn) is 1010 to 5000 nM; for `COc1ccc2nc(C(F)(F)F)n(CC(=O)N3C[C@@H](NC4CCOC4)CC[C@H]3c3ncc(-c4cc5ccccc5nc4OC)[nH]3)c2c1` (stereo partly drawn) it is 510 to 1000 nM; for `COc1nc2ccccc2cc1-c1cnc(C2CN(S(=O)(=O)N(C)C)CCN2C(=O)Cc2c(C)[nH]c3ccc(F)cc23)[nH]1` (stereo not drawn) [4-(2-(5-fluoro-2-methyl-1H-indol-3-yl)acetyl)-3-(5-(2-methoxyquinolin-3-yl)-1H-imidazol-2-yl)-N,N-dimethylpiperazine-1-sulfonamide] it is 1010 to 5000 nM.

In the case of `CCC(=O)CCC(=O)N1CCN(C(=O)Cc2c(C)[nH]c3ccc(OC)cc23)C(c2ncc(-c3ccc4ccccc4c3)[nH]2)C1` (stereo not drawn), the 50% effective concentration (EC50) was 100 to 500 nM. The figure for `COc1nc2ccccc2cc1-c1cnc(C2CN(CC3CCOC3)CCN2C(=O)Cn2ccc3cc(C#N)ccc32)[nH]1` (stereo not drawn) is 510 to 1000 nM. The figure for `COc1nc2ccccc2cc1-c1cnc(C2COCCN2C(=O)Cn2c(C)nc3ccccc32)[nH]1` (stereo not drawn) is 1010 to 5000 nM; for `COc1nc2ccccc2cc1-c1cnc(C2CN(Cc3ccoc3)CCN2C(=O)Cc2c(C)[nH]c3ccc(F)cc23)[nH]1` (stereo not drawn) it is 100 to 500 nM; for `COc1ccc2nc(C)n(CC(=O)N3CCN(CC4CCOC4)C[C@H]3c3ncc(-c4ccc5ccccc5n4)[nH]3)c2c1` (stereo partly drawn) it is 1010 to 5000 nM.

On to `Cc1csc(CC(=O)N2CCN(CCc3ccccc3)CC2c2ncc(-c3ccc4ccccc4c3)[nH]2)n1` (stereo not drawn), for which the EC50 lay in the range of 1010 to 5000 nM.

As to `COc1ccc2nc(C(F)(F)F)n(CC(=O)N3CC[C@@H](N(C)Cc4ccn(C)n4)C[C@H]3c3ncc(-c4cc5ccccc5nc4OC)[nH]3)c2c1` [2-(6-methoxy-2-(trifluoromethyl)-1H-benzo[d]imidazol-1-yl)-1-((2S,4R)-2-(5-(2-methoxyquinolin-3-yl)-1H-imidazol-2-yl)-4-(methyl((1-methyl-1H-pyrazol-3-yl)methyl)amino)piperidin-1-yl)ethan-1-one], the EC50 is less than 100 nM. The figure for `COc1nc2ccccc2cc1-c1cnc(C2CN(CC3CCOC3)CCN2C(=O)c2sc(-c3cnccn3)nc2C)[nH]1` (stereo not drawn) is 1010 to 5000 nM.

These data come from patent US10815222B2, “Compounds for use in the treatment of kinetoplastid infection” (C.N.C.C.S. S.c.a.r.l. COLLEZIONE NAZIONALE DEI COMPOSTI …, priority 2016, dated 2020).
